Laboratory results as given in patent US11414424B2, “Cardiac sarcomere inhibitors” (Cytokinetics, Inc., priority 2018, dated 2022).

Tested on: bovine cardiac myofibrils
Test: Myofibril assay: PK/LDH-coupled steady-state ATPase activity of skinned bovine cardiac myofibrils
Assay type: biochemical
Settings: Ca2+ activating to 75% of maximal rate
In short: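 Steady-state ATPase of detergent-skinned bovine left-ventricular myofibrils (1 mg/mL), PK/LDH-coupled NADH read at 340 nm, in PIPES/MgCl2 buffer pH 6.8 with 50 μM ATP, 0.6 mM EGTA and CaCl2 set for 50% or 75% activation. Inhibition of activity measured.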

Cc1cc(N2CCC3(C2)C(=O)N(C(C)C)CC(=O)N3Cc2ccc(C(F)(F)F)cc2)cc(C)n1 (stereo not drawn) [Compound 77, 2-(2,6-dimethylpyridin-4-yl)-9-isopropyl-6-(4-(trifluoromethyl)benzyl)-2,6,9-triazaspiro[4.5]-decane-7,10-dione]
CDMF75 IC15: 13.0 µM

CC(C)N1CC(=O)N(Cc2ccc(Cl)cc2)C2(CCN(c3cnn(C)c3)C2)C1=O (stereo not drawn) [Compound 78, 6-(4-chlorobenzyl)-9-isopropyl-2-(1-methyl-1H-pyrazol-4-yl)-2,6,9-triazaspiro[4.5]decane-7,10-dione]
CDMF75 IC15: 4.1 µM

CC(C)N1CC(=O)N(Cc2ccc(Cl)cc2)C2(CCN(c3cccnn3)C2)C1=O (stereo not drawn) [Compound 79, 6-(4-chlorobenzyl)-9-isopropyl-2-(pyridazin-3-yl)-2,6,9-triazaspiro[4.5]-decane-7,10-dione]
CDMF75 IC15: 3.8 µM

CC(C)N1CC(=O)N(Cc2ccc(Cl)cc2)C2(CCN(c3ccn(C)c(=O)c3)C2)C1=O (stereo not drawn) [Compound 80, 6-(4-chlorobenzyl)-9-isopropyl-2-(1-methyl-2-oxo-1,2-dihydropyridin-4-yl)-2,6,9-triazaspiro-[4.5]decane-7,10-dione]
CDMF75 IC15: 1.7 µM

CC(C)N1CC(=O)N(Cc2ccc(Cl)cc2)C2(CCN(c3cc[nH]c(=O)c3)C2)C1=O (stereo not drawn) [Compound 81, 6-(4-chlorobenzyl)-9-isopropyl-2-(2-oxo-1,2-dihydropyridin-4-yl)-2,6,9-triazaspiro[4.5]decane-7,10-dione]
CDMF75 IC15: 1.4 µM

CCN1CC(=O)N(Cc2ccc(Cl)cc2)C2(CCN(c3ccccn3)C2)C1=O (stereo not drawn) [Compound 82, 6-(4-chlorobenzyl)-9-ethyl-2-(pyridin-2-yl)-2,6,9-triazaspiro[4.5]decane-7,10-dione]
CDMF75 IC15: 8.1 µM

O=C1CN(C2CCCC2)C(=O)C2(CCN(c3ccccn3)C2)N1Cc1ccc(Cl)cc1 (stereo not drawn) [Compound 83, 6-(4-chlorobenzyl)-9-cyclopentyl-2-(pyridin-2-yl)-2,6,9-triazaspiro[4.5]-decane-7,10-dione]
CDMF75 IC15: 1.3 µM

CC(C)CN1CC(=O)N(Cc2ccc(Cl)cc2)C2(CCN(c3ccccn3)C2)C1=O (stereo not drawn) [Compound 84, 6-(4-chlorobenzyl)-9-isobutyl-2-(pyridin-2-yl)-2,6,9-triazaspiro[4.5]-decane-7,10-dione]
CDMF75 IC15: 4.0 µM

CC1(N2CC(=O)N(Cc3ccc(Cl)cc3)C3(CCN(c4ccccn4)C3)C2=O)CC1 (stereo not drawn) [Compound 85, 6-(4-chlorobenzyl)-9-(1-methylcyclopropyl)-2-(pyridin-2-yl)-2,6,9-triazaspiro[4.5]decane-7,10-dione]
CDMF75 IC15: 14.3 µM

COCC(C)N1CC(=O)N(Cc2ccc(Cl)cc2)C2(CCN(c3ccccn3)C2)C1=O (stereo not drawn) [Compound 86, 6-(4-chlorobenzyl)-9-(1-methoxypropan-2-yl)-2-(pyridin-2-yl)-2,6,9-triazaspiro[4.5]decane-7,10-dione]
CDMF75 IC15: 8.6 µM

COc1cc(N2CCC3(C2)C(=O)N(C(C)C)CC(=O)N3Cc2ccc(Cl)cc2)ccn1 (stereo not drawn) [Compound 87, 6-(4-chlorobenzyl)-9-isopropyl-2-(2-methoxypyridin-4-yl)-2,6,9-triazaspiro[4.5]-decane-7,10-dione]
CDMF75 IC15: 1.9 µM

CC(C)N1CC(=O)N(Cc2ccc(C(F)(F)F)cc2)C2(CCN(c3cc(C#N)ccn3)C2)C1=O (stereo not drawn) [Compound 88, 2-(9-isopropyl-7,10-dioxo-6-(4-(trifluoromethyl)-benzyl)-2,6,9-triazaspiro[4.5]decan-2-yl)isonicotinonitrile]
CDMF75 IC15: 4.0 µM

CC(C)N1CC(=O)N(Cc2ccc(C(F)(F)F)cc2)C2(CCN(c3cc(C(N)=O)ccn3)C2)C1=O (stereo not drawn) [Compound 89, 2-(9-isopropyl-7,10-dioxo-6-(4-(trifluoromethyl)-benzyl)-2,6,9-triazaspiro[4.5]decan-2-yl)isonicotinamide]
CDMF75 IC15: 3.3 µM

CC(C)N1CC(=O)N(Cc2ccc(Cl)c(Cl)c2)C2(CCN(c3ccc(C#N)cn3)C2)C1=O (stereo not drawn) [Compound 90, 6-(6-(3,4-dichlorobenzyl)-9-isopropyl-7,10-dioxo-2,6,9-triazaspiro[4.5]-decan-2-yl)nicotinonitrile]
CDMF75 IC15: 1.7 µM

CC(C)N1CC(=O)N(Cc2ccc(Cl)c(Cl)c2)C2(CCN(c3ccc(C(N)=O)cn3)C2)C1=O (stereo not drawn) [Compound 91, 6-(6-(3,4-dichlorobenzyl)-9-isopropyl-7,10-dioxo-2,6,9-triazaspiro[4.5]decan-2-yl)nicotinamide]
CDMF75 IC15: 1.1 µM

CC(C)N1CC(=O)N(Cc2ccc(Cl)cc2)C2(CCN(c3ccc(F)cn3)C2)C1=O (stereo not drawn) [Compound 92, 6-(4-chlorobenzyl)-2-(5-fluoropyridin-2-yl)-9-isopropyl-2,6,9-triazaspiro[4.5]decane-7,10-dione]
CDMF75 IC15: 1.0 µM

O=C1CN([C@@H]2CCOC2)C(=O)C2(CCN(c3ccccn3)C2)N1Cc1ccc(Cl)cc1 (stereo partly drawn) [Compound 93, 6-(4-chlorobenzyl)-2-(pyridin-2-yl)-9-((R)-tetrahydrofuran-3-yl)-2,6,9-triazaspiro-[4.5]decane-7,10-dione]
CDMF75 IC15: 19.7 µM

O=C1CN([C@H]2CCOC2)C(=O)C2(CCN(c3ccccn3)C2)N1Cc1ccc(Cl)cc1 (stereo partly drawn) [Compound 94, 6-(4-chlorobenzyl)-2-(pyridin-2-yl)-9-((S)-tetra-hydrofuran-3-yl)-2,6,9-triazaspiro[4.5]decane-7,10-dione]
CDMF75 IC15: 36.1 µM

CC(C)N1CC(=O)N(Cc2ccc(Cl)cc2)C2(CCN(c3cc(C#N)ccn3)C2)C1=O (stereo not drawn) [Compound 95, 2-(6-(4-chlorobenzyl)-9-isopropyl-7,10-dioxo-2,6,9-triazaspiro[4.5]decan-2-yl)isonicotinonitrile]
CDMF75 IC15: 5.0 µM

CC(C)N1CC(=O)N(Cc2ccc(Cl)cc2)C2(CCN(c3ccc(C#N)cn3)C2)C1=O (stereo not drawn) [Compound 96, 6-(6-(4-chlorobenzyl)-9-isopropyl-7,10-dioxo-2,6,9-triazaspiro[4.5]decan-2-yl)nicotinonitrile]
CDMF75 IC15: 4.5 µM

CC(C)N1CC(=O)N(Cc2ccc(Cl)cc2)C2(CCN(c3cc(C(N)=O)ccn3)C2)C1=O (stereo not drawn) [Compound 97, 2-(6-(4-chlorobenzyl)-9-isopropyl-7,10-dioxo-2,6,9-triazaspiro[4.5]decan-2-yl)isonicotinamide]
CDMF75 IC15: 3.1 µM

CC(C)N1CC(=O)N(Cc2ccc(Cl)cc2)C2(CCN(c3ccc(C(N)=O)cn3)C2)C1=O (stereo not drawn) [Compound 98, 6-(6-(4-chlorobenzyl)-9-isopropyl-7,10-dioxo-2,6,9-triazaspiro[4.5]decan-2-yl)nicotinamide]
CDMF75 IC15: 2.4 µM

CC(C)N1CC(=O)N(Cc2ccc(C(F)(F)F)cc2)C2(CCN(C(N)=O)C2)C1=O (stereo not drawn) [Compound 107, 9-isopropyl-7,10-dioxo-6-(4-(trifluoromethyl)benzyl)-2,6,9-triazaspiro[4.5]decane-2-carboxamide]
CDMF75 IC15: 12.7 µM

CC(C)N1CC(=O)N(Cc2ccc(C(F)(F)F)cc2)C2(CCN(C(=O)Nc3ccccc3)C2)C1=O (stereo not drawn) [Compound 109, 9-isopropyl-7,10-dioxo-N-phenyl-6-(4-(trifluoro-methyl)benzyl)-2,6,9-triazaspiro[4.5]decane-2-carboxamide]
CDMF75 IC15: 8.3 µM

COC(=O)N1CCC2(C1)C(=O)N(C(C)C)CC(=O)N2Cc1ccc(C(F)(F)F)cc1 (stereo not drawn) [Compound 110, methyl 9-isopropyl-7,10-dioxo-6-(4-(trifluoro-methyl)benzyl)-2,6,9-triazaspiro[4.5]decane-2-carboxylate]
CDMF75 IC15: 34.4 µM

CC(C)N1CC(=O)N(Cc2ccc(C(F)(F)F)cc2)C2(CCN(C(=O)Nc3ccncc3)C2)C1=O (stereo not drawn) [Compound 111, 9-isopropyl-7,10-dioxo-N-(pyridin-4-yl)-6-(4-(trifluoromethyl)benzyl)-2,6,9-triazaspiro[4.5]-decane-2-carboxamide]
CDMF75 IC15: 19.8 µM

CC(C)N1CC(=O)N(Cc2ccc(C(F)(F)F)cc2)C2(CCN(C(=O)NC(C)(C)C)C2)C1=O (stereo not drawn) [Compound 112, N-(tert-butyl)-9-isopropyl-7,10-dioxo-6-(4-(trifluoromethyl)benzyl)-2,6,9-triazaspiro[4.5]-decane-2-carboxamide]
CDMF75 IC15: 33.0 µM

CC(C)N1CC(=O)N(Cc2ccc(C(F)(F)F)cc2)C2(CCN(C(=O)Nc3cccnc3)C2)C1=O (stereo not drawn) [Compound 113, 9-isopropyl-7,10-dioxo-N-(pyridin-3-yl)-6-(4-(trifluoromethyl)benzyl)-2,6,9-triazaspiro[4.5]-decane-2-carboxamide]
CDMF75 IC15: 18.5 µM

CC(C)N1CC(=O)N(Cc2ccc(C(F)(F)F)cc2)C2(CCN(C(=O)Nc3cnn(C)c3)C2)C1=O (stereo not drawn) [Compound 114, 9-isopropyl-N-(1-methyl-1H-pyrazol-4-yl)-7,10-dioxo-6-(4-(trifluoromethyl)benzyl)-2,6,9-triazaspiro[4.5]decane-2-carboxamide]
CDMF75 IC15: 7.9 µM

CC(C)N1CC(=O)N(Cc2ccc(C(F)(F)F)cc2)C2(CCN(C(=O)Nc3ccc(F)cc3)C2)C1=O (stereo not drawn) [Compound 115, N-(4-fluorophenyl)-9-isopropyl-7,10-dioxo-6-(4-(trifluoromethyl)benzyl)-2,6,9-triazaspiro[4.5]decane-2-carboxamide]
CDMF75 IC15: 10.2 µM

CCNC(=O)N1CCC2(C1)C(=O)N(C(C)C)CC(=O)N2Cc1ccc(C(F)(F)F)cc1 (stereo not drawn) [Compound 116, N-ethyl-9-isopropyl-7,10-dioxo-6-(4-(trifluoromethyl)benzyl)-2,6,9-triazaspiro[4.5] decane-2-carboxamide]
CDMF75 IC15: 7.2 µM

CC(C)NC(=O)N1CCC2(C1)C(=O)N(C(C)C)CC(=O)N2Cc1ccc(C(F)(F)F)cc1 (stereo not drawn) [Compound 117, N,9-diisopropyl-7,10-dioxo-6-(4-(trifluoromethyl)benzyl)-2,6,9-triazaspiro[4.5]decane-2-carboxamide]
CDMF75 IC15: 16.6 µM

CC(C)N1CC(=O)N(Cc2ccc(C(F)(F)F)cc2)C2(CCN(C(=O)NC3CC3)C2)C1=O (stereo not drawn) [Compound 118, N-cyclopropyl-9-isopropyl-7,10-dioxo-6-(4-(trifluoromethyl)benzyl)-2,6,9-triazaspiro[4.5]decane-2-carboxamide]
CDMF75 IC15: 14.0 µM
